Data reported in patent publication US11208412B2 (DAEGU-GYEONGBUK MEDICAL INNOVATION FOUNDATION, priority 2017, dated 2021).

Columns and labels:
Experiment in all cases: Kinase selectivity, DiscoverX scanMAX Kinase assay panel (% control)
Type in all cases: binding
[1] = target: T1, kinases of the scanMAX Kinase assay panel (Homo sapiens, UniProt Q9P0L2); details: MARK1; 1 uM
T1 construct: purchased DiscoverX Co. (contract measurement) scanMAX Kinase assay panel
Procedure, shortened: (§1)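 Binding-panel profiling at one concentration, 1 uM in DMSO; values are % of DMSO control after subtracting the positive-control floor. Less than 35% means activity on that kinase.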

[2] = target: T2, kinases of the scanMAX Kinase assay panel (Homo sapiens, UniProt Q99759); details: MAP3K3; 1 uM
T2 construct: purchased DiscoverX Co. (contract measurement) scanMAX Kinase assay panel
T2 sequence (Q99759 1-626): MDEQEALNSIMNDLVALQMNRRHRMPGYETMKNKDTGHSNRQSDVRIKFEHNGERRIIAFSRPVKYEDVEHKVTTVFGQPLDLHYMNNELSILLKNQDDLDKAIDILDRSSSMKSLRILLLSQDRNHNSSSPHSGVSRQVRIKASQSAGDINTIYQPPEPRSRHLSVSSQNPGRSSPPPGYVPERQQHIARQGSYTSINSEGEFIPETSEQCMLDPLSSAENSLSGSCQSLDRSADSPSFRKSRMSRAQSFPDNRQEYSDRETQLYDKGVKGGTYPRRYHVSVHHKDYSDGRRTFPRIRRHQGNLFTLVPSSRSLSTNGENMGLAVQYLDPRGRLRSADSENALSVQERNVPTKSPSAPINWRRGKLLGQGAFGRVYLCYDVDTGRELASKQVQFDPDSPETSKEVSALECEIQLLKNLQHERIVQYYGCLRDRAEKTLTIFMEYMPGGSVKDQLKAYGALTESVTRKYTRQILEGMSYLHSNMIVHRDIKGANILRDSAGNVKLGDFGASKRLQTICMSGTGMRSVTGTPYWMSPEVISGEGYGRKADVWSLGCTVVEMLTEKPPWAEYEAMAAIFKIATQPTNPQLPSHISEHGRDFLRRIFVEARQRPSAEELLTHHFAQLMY
Procedure, shortened: as §1

[3] = target: T3, kinases of the scanMAX Kinase assay panel (Homo sapiens, UniProt P50750); details: CDK9; 1 uM
T3 construct: purchased DiscoverX Co. (contract measurement) scanMAX Kinase assay panel
T3 sequence (P50750 whole entry): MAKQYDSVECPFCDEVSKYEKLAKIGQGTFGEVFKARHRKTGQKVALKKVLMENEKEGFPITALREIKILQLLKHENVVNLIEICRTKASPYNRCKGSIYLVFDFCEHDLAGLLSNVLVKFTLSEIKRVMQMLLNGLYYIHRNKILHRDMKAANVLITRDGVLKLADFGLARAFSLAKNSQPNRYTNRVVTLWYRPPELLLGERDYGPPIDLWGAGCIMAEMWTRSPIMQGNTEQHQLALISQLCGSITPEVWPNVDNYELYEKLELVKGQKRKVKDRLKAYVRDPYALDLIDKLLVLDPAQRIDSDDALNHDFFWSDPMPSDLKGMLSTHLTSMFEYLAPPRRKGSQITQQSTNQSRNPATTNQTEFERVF
Procedure, shortened: as §1

[4] = target: T4, kinases of the scanMAX Kinase assay panel (Homo sapiens, UniProt Q8IW41); details: MAPKAPK5; 1 uM
T4 construct: purchased DiscoverX Co. (contract measurement) scanMAX Kinase assay panel
T4 sequence (Q8IW41 1-473): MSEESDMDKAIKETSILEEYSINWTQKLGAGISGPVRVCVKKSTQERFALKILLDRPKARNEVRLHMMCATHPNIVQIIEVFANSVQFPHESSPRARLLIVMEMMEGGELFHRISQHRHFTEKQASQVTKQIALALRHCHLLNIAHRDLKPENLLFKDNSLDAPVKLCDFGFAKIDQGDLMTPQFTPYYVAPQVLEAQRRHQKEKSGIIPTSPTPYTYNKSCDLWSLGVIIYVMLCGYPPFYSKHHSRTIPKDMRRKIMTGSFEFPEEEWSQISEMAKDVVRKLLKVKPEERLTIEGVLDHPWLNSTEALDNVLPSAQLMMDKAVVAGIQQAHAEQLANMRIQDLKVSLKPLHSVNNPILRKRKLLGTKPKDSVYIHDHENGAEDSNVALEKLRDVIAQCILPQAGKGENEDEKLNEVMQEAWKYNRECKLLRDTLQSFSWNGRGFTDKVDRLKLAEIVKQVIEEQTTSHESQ
Procedure, shortened: as §1

[5] = target: T5, kinases of the scanMAX Kinase assay panel (Homo sapiens, UniProt Q13163); details: MEK5; 1 uM
T5 construct: purchased DiscoverX Co. (contract measurement) scanMAX Kinase assay panel
T5 sequence (Q13163 1-448): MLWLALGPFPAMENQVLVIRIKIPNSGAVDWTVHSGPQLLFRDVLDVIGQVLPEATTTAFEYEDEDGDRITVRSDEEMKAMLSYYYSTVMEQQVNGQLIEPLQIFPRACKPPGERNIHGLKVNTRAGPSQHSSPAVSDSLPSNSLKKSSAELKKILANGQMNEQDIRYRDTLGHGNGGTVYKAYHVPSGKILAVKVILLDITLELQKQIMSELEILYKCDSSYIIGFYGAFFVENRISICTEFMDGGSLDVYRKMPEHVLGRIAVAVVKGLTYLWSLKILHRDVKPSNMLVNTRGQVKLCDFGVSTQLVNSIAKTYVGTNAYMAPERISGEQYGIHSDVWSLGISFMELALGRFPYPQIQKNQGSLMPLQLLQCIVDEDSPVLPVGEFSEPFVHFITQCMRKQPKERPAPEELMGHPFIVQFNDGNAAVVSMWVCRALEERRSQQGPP
Procedure, shortened: as §1

[6] = target: T6, kinases of the scanMAX Kinase assay panel (Homo sapiens, UniProt Q02156); details: PRKCE; 1 uM
T6 construct: purchased DiscoverX Co. (contract measurement) scanMAX Kinase assay panel
T6 sequence (Q02156 1-737): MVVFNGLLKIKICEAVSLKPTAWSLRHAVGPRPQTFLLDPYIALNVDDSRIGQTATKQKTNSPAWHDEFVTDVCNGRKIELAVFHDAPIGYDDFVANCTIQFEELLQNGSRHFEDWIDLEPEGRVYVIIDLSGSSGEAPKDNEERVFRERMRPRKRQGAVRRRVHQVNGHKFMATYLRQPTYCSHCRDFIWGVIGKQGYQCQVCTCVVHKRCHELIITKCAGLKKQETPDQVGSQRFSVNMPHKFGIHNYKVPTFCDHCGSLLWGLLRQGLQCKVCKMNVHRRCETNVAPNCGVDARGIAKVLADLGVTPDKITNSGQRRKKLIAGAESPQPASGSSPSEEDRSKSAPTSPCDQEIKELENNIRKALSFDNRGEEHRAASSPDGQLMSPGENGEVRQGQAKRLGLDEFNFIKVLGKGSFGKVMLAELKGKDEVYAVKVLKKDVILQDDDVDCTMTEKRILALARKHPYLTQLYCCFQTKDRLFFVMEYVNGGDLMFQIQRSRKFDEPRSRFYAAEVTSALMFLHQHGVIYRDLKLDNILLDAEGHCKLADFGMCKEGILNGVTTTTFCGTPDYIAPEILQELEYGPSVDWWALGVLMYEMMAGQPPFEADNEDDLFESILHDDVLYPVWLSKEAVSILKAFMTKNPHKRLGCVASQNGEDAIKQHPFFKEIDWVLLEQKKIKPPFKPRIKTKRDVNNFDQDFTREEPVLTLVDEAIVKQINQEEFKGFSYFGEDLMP
Procedure, shortened: as §1

[7] = target: T7, kinases of the scanMAX Kinase assay panel (Homo sapiens, UniProt Q02763); details: kinase TIE2; 1 uM in DMSO
T7 construct: purchased DiscoverX Co. (contract measurement) scanMAX Kinase assay panel
T7 sequence (Q02763 23-1124): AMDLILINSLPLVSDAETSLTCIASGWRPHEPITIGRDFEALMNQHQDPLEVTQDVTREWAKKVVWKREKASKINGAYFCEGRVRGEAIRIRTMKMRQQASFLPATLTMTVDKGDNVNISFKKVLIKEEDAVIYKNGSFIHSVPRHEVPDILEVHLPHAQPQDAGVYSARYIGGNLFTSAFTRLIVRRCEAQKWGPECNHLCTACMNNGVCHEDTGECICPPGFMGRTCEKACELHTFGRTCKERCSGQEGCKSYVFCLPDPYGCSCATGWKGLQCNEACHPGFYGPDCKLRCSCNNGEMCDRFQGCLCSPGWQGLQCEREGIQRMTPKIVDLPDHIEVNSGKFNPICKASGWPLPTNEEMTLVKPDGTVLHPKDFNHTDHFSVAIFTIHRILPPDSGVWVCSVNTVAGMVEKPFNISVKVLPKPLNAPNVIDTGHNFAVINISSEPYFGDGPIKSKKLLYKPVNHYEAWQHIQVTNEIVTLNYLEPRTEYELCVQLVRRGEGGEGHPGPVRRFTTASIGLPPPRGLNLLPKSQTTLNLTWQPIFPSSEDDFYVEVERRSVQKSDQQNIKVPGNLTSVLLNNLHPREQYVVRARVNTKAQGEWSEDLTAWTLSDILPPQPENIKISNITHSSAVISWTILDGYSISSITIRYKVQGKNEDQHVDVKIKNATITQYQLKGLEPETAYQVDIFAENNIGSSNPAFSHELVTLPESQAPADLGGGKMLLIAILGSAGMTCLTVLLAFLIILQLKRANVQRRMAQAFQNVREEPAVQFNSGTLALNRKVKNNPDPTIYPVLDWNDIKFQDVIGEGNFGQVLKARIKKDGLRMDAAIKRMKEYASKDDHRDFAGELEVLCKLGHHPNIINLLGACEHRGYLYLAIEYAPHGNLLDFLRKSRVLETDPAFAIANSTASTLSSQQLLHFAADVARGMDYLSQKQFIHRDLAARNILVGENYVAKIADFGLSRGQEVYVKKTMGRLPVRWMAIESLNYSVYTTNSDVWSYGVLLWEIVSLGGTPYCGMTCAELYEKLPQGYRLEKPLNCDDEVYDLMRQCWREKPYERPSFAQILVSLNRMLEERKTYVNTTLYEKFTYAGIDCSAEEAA
Procedure, shortened: as §1

T1 sequence (Q9P0L2 whole entry): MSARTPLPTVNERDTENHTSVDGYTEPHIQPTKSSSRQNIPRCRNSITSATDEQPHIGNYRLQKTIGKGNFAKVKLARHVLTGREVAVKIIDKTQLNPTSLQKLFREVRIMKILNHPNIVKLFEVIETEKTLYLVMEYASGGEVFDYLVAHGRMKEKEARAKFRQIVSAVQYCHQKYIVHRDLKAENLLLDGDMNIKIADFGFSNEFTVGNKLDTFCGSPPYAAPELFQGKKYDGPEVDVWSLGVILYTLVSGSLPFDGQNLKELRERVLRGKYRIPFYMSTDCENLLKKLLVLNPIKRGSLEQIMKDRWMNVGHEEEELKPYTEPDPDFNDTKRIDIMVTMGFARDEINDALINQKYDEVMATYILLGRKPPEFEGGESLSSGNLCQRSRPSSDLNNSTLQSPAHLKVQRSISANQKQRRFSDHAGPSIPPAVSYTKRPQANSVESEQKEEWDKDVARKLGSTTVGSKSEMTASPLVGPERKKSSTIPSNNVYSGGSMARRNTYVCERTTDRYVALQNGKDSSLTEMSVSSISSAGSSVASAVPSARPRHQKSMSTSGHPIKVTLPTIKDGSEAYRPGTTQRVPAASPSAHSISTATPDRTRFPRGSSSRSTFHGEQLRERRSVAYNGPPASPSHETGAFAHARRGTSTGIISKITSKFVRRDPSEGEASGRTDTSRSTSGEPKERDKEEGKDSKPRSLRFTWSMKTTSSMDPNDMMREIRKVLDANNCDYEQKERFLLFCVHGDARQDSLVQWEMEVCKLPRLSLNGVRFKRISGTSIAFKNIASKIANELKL

SMILES | remaining binding at 1 µM [1] [%] | remaining binding at 1 µM [2] [%] | remaining binding at 1 µM [3] [%] | remaining binding at 1 µM [4] [%] | remaining binding at 1 µM [5] [%] | remaining binding at 1 µM [6] [%] | remaining binding at 1 µM [7] [%]
CNc1nc(Nc2ccc(C(=O)N3CCOCC3)cc2OC)nc2[nH]cc(C#N)c12 [Example 1, 2-((2-methoxy-4-(morpholine-4-carbonyl)phenyl)amino)-4-(methylamino)-7H-pyrrolo[2,3-d]pyrimidine-5-carbonitrile] | 91 | 98 | 96 | 16 | 47 | 100 | 92
CC1(Nc2nc(Nc3cnn([C@H]4CCN(C5COC5)C[C@@H]4F)c3Cl)nc3[nH]cc(C#N)c23)CC1 [Example 52, 2-((5-chloro-1-((3S,4S)-3-fluoro-1-(oxetane-3-yl)piperidine-4-yl)-1H-pyrazole-4-yl)amino)((1-methylcyclopropyl)amino)-7H-pyrrolo[2,3-d]pyrimidine-5-carbonitrile] | 36 | 0.1 | 84 | 72 | 0.05 | 100 | 46
CCNc1nc(Nc2ccc(C(=O)N3CCC(N4CCOCC4)CC3)cc2OC)nc2[nH]cc(C(F)(F)F)c12 [Example 104, (4-((4-(ethylamino)-5-(trifluoromethyl)-7H-pyrrolo[2,3-d]pyrimidine-2-yl)amino)-3-methoxyphenyl)(4-morpholinopiperidine-1-yl)methanone] | 100 | 87 | 100 | 51 | 74 | 100 | 100
